The values that follow are results of earlier work, collected in patent US20260130846A1, “ORAL PRODUCT” (NICOVENTURES TRADING LIMITED, priority 2022, published 2026).

The conditions of data set [1]: humans.
For data set [2] the following is noted: mammals.

In the case of `CCNC(=O)CC[C@H](N)C(=O)O` [Theanine, L-γ-glutamylethylamide], the “Absorption; plasma levels after oral consumption” value in data set [1] was “rapidly absorbed, with plasma levels rising in a linear dose-related manner”. Further, in data set [2], the “Time for which brain levels continue to increase after consumption” value was 4 h.
